The results in this text go back to patent publication US5747235A, “Silver halide light sensitive emulsion layer having enhanced photographic sensitivity” (Eastman Kodak Company, priority 1996, dated 1998).

Test [1] can be described thus: Example 6: photographic speed and fog, 365 nm exposure, emulsion T-2. To be noted: for effect on dye desensitization: red dyed emulsion (D-II), 365 nm. As to the method:
(§1) For photographic evaluation, each of the coating strips was exposed for 0.1 sec to a 365 nm emission line of a Hg lamp filtered through a Kodak Wratten filter number 18A and a step wedge ranging in density from 0 to 4 density units in 0.2 density steps. The exposed film strips were developed for 6 min in Kodak Rapid X-ray Developer (KRX). S365, relative sensitivity at 365 nm, was evaluated at a density of 0.2 units above fog.
(§2) An AgBrI tabular silver halide emulsion (Emulsion T-2) was prepared containing 4.05% total I distributed such that the central portion of the emulsion grains contained 1.5% I and the perimeter area contained substantially higher I, as described by Chang et. al., U.S. Pat. No. 5,314,793. […] This emulsion was precipitated using deionized gelatin. The emulsion was sulfur sensitized by adding 8.5×10^-6 mole 1,3-dicarboxymethyl-1,3-dimethyl-2-thiourea /mole Ag at 40° C.; the temperature was then raised to 60° C. at a rate of 5° C./3 min and the emulsions held for 20 min before cooling to 40° C. The chemically sensitized emulsion was then used to prepare coatings containing the fragmentable two-electron donor compounds. All of the experimental coating variations in Table III contained the hydroxybenzene 2,4-disulfocatechol (HB3) at a concentration of 13 mmole/ mole Ag, added to the melt before the addition of any further addenda. Where present, the blue sensitizing dye D-I or the red sensitizing dye D-II were added from methanol solution to the emulsion at 40° C. after the chemical sensitization and disulfocatechol addition. The fragmentable two-electron donor compounds were added to the emulsion at 40° C. and the coatings were prepared and tested as described in Example 1, except that the additional gelatin used to prepare the coatings described in Table III was deionized gelatin.
The chemically sensitized AgErI tabular emulsion T-2 as described in Example 3 was used to prepare the experimental coating variations listed in Table VI, comparing fragmentable electron donating compounds PMT-1 and PMT-2 that contain a phenylmercaptotetrazole as the silver halide adsorbing group. For some of the experimental variations listed in Table VI the red sensitizing dye D-II was added from methanol solution to the emulsion at 40° C. after the chemical sensitization. The fragmentable electron donating compounds were then added to the emulsion and coatings prepared and tested for sensitivity at 365 nm and for spectral sensitivity as described in Example 3.

Test [2] is described as follows: Example 1: photographic speed and fog, 365 nm exposure, emulsion T-1. Conditions: undyed; for S365: control=100. As to the method:
This chemically sensitized emulsion was then used to prepare the experimental coating variations indicated in Table I. All of the experimental coating variations in Table I contained the hydroxybenzene 2,4-disulfocatechol (HB3) at a concentration of 13 mmole/mole Ag, added to the melt before the addition of any further addenda. The fragmentable electron donor compounds as indicated in Table I were added from an aqueous potassium bromide solution, or from a methanol solution, before additional water, gelatin, and surfactant were added to the emulsion melts.
as §1

Test [3] in a line: Example 7: photographic speed and fog with/without HB3, 365 nm exposure, emulsion T-2. As to the method: as §1
as §2, with “All of the experimental coating variations in Table III contained the hydroxybenzene 2,4-disulfocatechol (HB3) at a concentration of 13 mmole/ mole Ag, added to the melt before the addition of any further addenda.” left out
Where present the blue sensitizing dye D-I or the red sensitizing dye D-II were added from methanol solution to the emulsion at 40° C. after the chemical sensitization and disulfocatechol addition. The fragmentable two-electron donating compounds were then added to the emulsion and coatings prepared as described in Example 1, except that the additional gelatin used to prepare the coatings described in Table VII was deionized gelatin. The coatings were tested for their response to a 365 nm exposure as described in Example 1.

Where [4] appears, read: 0.007 x10^-3 mole/mole Ag, HB3 0, dye II 0.86 x10^-3.
[5] abbreviates: 0.007 x10^-3 mole/mole Ag, HB3 13 x10^-3, dye II 0.86 x10^-3.
Where [6] appears, read: 0.007 x10^-3 mole/mole Ag, HB3 13 x10^-3, dye II 0.86 x10^-3, dyed control 68.
Setting [7] is: 0.07 x10^-3 mole/mole Ag, HB3 0, dye I 0.91 x10^-3.
Where [8] appears, read: 0.07 x10^-3 mole/mole Ag, HB3 0, no dye.
Setting [9] is: 0.07 x10^-3 mole/mole Ag, HB3 0, no dye, control=100.
[10] abbreviates: 0.07 x10^-3 mole/mole Ag, HB3 13 x10^-3, dye I 0.91 x10^-3.
The mark [11] stands for this setting: 0.07 x10^-3 mole/mole Ag, HB3 13 x10^-3, dye I 0.91 x10^-3, dyed control 105.
The mark [12] stands for this setting: 0.07 x10^-3 mole/mole Ag, HB3 13 x10^-3, no dye.
The mark [13] stands for this setting: 0.07 x10^-3 mole/mole Ag, HB3 13 x10^-3, no dye, control=100.

Counter-ions that a name gives are not always drawn.

`Cc1ccc(N(CCC(=O)Nc2cccc(-n3nnnc3S)c2)C(C)C(=O)O)cc1` (stereo not drawn) [PMT-1]: the Fog stood at 0.14 in test [1] (0.0006 x10^-3 mole/mole Ag, dye II 0.86 x10^-3); 0.27 in test [1] (0.0017 x10^-3 mole/mole Ag, dye II 0.86 x10^-3); 0.53 in test [1] (0.0055 x10^-3 mole/mole Ag, dye II 0.86 x10^-3); 0.08 in test [1] (0.006 x10^-3 mole/mole Ag, no dye); 0.13 in test [1] (0.017 x10^-3 mole/mole Ag, no dye). For the same compound, the S365 was 97 in test [1] (0.0006 x10^-3 mole/mole Ag, dye II 0.86 x10^-3, dyed control 73); 115 in test [1] (0.0017 x10^-3 mole/mole Ag, dye II 0.86 x10^-3, dyed control 73); 102 in test [1] (0.0055 x10^-3 mole/mole Ag, dye II 0.86 x10^-3, dyed control 73); 195 in test [1] (0.006 x10^-3 mole/mole Ag, no dye, control=100); 191 in test [1] (0.017 x10^-3 mole/mole Ag, no dye, control=100). Moreover, the “effect on dye desensitization” value in test [1] is recorded as “effective in ameliorating dye desensitization”.
With `CCSCCN(c1ccc(C)cc1)[C@@H](C)C(=O)[O-].[Na+]` [Compound S-3, N-(4-Methylphenyl)-N-(2-ethylthio-ethyl)alanine sodium salt], the Fog worked out at 0.05 in test [2] (0.011 x10^-3 mole/mole Ag), 0.08 in test [2] (0.022 x10^-3 mole/mole Ag) and 0.22 in test [2] (0.044 x10^-3 mole/mole Ag). The S365 in test [2] (0.011 x10^-3 mole/mole Ag) was found to be 118; in test [2] (0.022 x10^-3 mole/mole Ag), 132; in test [2] (0.044 x10^-3 mole/mole Ag), 129.
Regarding `CCSCCN(c1ccc(C)cc1)C(CC(=O)O)C(=O)O` (stereo not drawn) [Compound S-8], the Fog in test [3] (setting [4]) is listed as 0.21; in test [3] (setting [5]), 0.15; in test [3] (setting [7]), 0.12; in test [3] (setting [8]) it was 0.16; in test [3] (setting [10]) it was 0.12; in test [3] (setting [12]), 0.13. The Fog in test [2] (0.022 x10^-3 mole/mole Ag) turned out to be 0.08; in test [2] (0.07 x10^-3 mole/mole Ag), 0.13. Further, the S365 is recorded as 110 in test [3] (setting [4]); 112 in test [3] (setting [6]); 155 in test [3] (setting [7]); 159 in test [3] (setting [9]); 120 in test [3] (setting [11]); 162 in test [3] (setting [13]). Besides, the S365 was 126 in test [2] (0.022 x10^-3 mole/mole Ag) and 135 in test [2] (0.07 x10^-3 mole/mole Ag).
As for `CC(C(=O)O)N(CCC(=O)Nc1cccc(-n2nnnc2S)c1)c1ccccc1` (stereo not drawn) [PMT-2], the Fog in test [1] (0.0005 x10^-3 mole/mole Ag, dye II 0.86 x10^-3) amounted to 0.13; in test [1] (0.0016 x10^-3 mole/mole Ag, dye II 0.86 x10^-3), 0.23; in test [1] (0.005 x10^-3 mole/mole Ag, dye II 0.86 x10^-3) it was 0.40; in test [1] (0.005 x10^-3 mole/mole Ag, no dye), 0.06; in test [1] (0.016 x10^-3 mole/mole Ag, no dye) it was 0.08. Also, the S365 in test [1] (0.0005 x10^-3 mole/mole Ag, dye II 0.86 x10^-3, dyed control 73) was 102; in test [1] (0.0016 x10^-3 mole/mole Ag, dye II 0.86 x10^-3, dyed control 73), 118; in test [1] (0.005 x10^-3 mole/mole Ag, dye II 0.86 x10^-3, dyed control 73) it was 118; in test [1] (0.005 x10^-3 mole/mole Ag, no dye, control=100), 191; in test [1] (0.016 x10^-3 mole/mole Ag, no dye, control=100), 186. Moreover, the “effect on dye desensitization” value in test [1] is recorded as “effective in ameliorating dye desensitization”.
With `CCSCCN(c1ccccc1)C(C)C(=O)O` (stereo not drawn) [Compound S-9, N-(Phenyl)-N-(2-thioethyl-ethyl)alanine sodium salt], the Fog in test [3] (0.0022 x10^-3 mole/mole Ag, HB3 13 x10^-3, dye II 0.86 x10^-3) stood at 0.24; in test [3] (setting [4]), 0.77; in test [3] (setting [5]), 0.44; in test [3] (setting [7]) it was 0.19; in test [3] (setting [8]) it was 0.21; in test [3] (setting [10]), 0.13. Further, the Fog in test [3] (setting [12]) worked out at 0.13. For the same compound, the S365 turned out to be 115 in test [3] (0.0022 x10^-3 mole/mole Ag, HB3 13 x10^-3, dye II 0.86 x10^-3, dyed control 68); 107 in test [3] (setting [6]); 159 in test [3] (setting [7]); 170 in test [3] (setting [9]); 162 in test [3] (setting [11]); 166 in test [3] (setting [13]).
